In PMC4982551 (MedChemComm, 2016):

tested on: selected panel of PTPs (mPTPB, SHP2, PTP1B, CD45, LYP, FAP-1); experiment: PTP activity assay, selected panel of PTPs; format: biochemical; conditions: pH 7, 25 °C

| Structure (SMILES) | PTP inhibitory activity (in words) |
| --- | --- |
| OC(c1ccccc1)(C(F)(F)F)C(F)(F)F [1a] | No appreciable activity |
| Cc1ccc(O)c(C(O)(C(F)(F)F)C(F)(F)F)c1 [1b] | moderate activity |
| Oc1cc2ccccc2cc1C(O)(C(F)(F)F)C(F)(F)F [1f] | the most potent one |
| O=C(COc1ccc2cc(C(O)(C(F)(F)F)C(F)(F)F)c(O)cc2c1)NC12CC3CC(CC(C3)C1)C2 [7d] | moderate activities |
| O=C(COc1ccc2cc(C(O)(C(F)(F)F)C(F)(F)F)c(O)cc2c1)NCCc1ccc(Cl)cc1Cl [7h] | moderate activities |
| O=C(COc1ccc2cc(C(O)(C(F)(F)F)C(F)(F)F)c(O)cc2c1)NC1c2ccccc2-c2ccccc21 [7i] | moderate activities |
| O=C(COc1ccc2cc(C(O)(C(F)(F)F)C(F)(F)F)c(O)cc2c1)N1c2ccccc2Sc2ccccc21 [7p] | very high activity |
